Assay results published in PubChem BioAssay AID1918994 (Molecular Pharmacology Branch, DTP, NCI, 2023).
Blank lines part the entries; values can stand above or below the compound they belong to.

Tested on: 292921-168-R-J2-PDC complex spheroid growth
Assay: Anticancer human tumor 292921-168-R-J2-PDC patient-derived pancreatic carcinoma cell line growth inhibition [AhR]
Conditions: for IC50: curve of first compound; for viability, T/C: stronger effect = lower value
In short: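 Complex tumor spheroids co-cultured with HUVEC and human MSC stroma; AhR antagonists tested in combination with standard-of-care and investigational agents. Top concentration at or near clinical Cmax (else 10 microM), half-log dilutions; growth expressed as percent test/control.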

[1] = second compound 0.1 µM, first compound 0.000949 µM
[2] = second compound 0.1 µM, first compound 0.003 µM
[3] = second compound 0.1 µM, first compound 0.00949 µM
[4] = second compound 0.1 µM, first compound 0.03 µM
[5] = second compound 0.1 µM, first compound 0.0949 µM
[6] = second compound 0.1 µM, first compound 0.3 µM
[7] = second compound 0.316 µM, first compound 0.000949 µM
[8] = second compound 0.316 µM, first compound 0.003 µM
[9] = second compound 0.316 µM, first compound 0.00949 µM
[10] = second compound 0.316 µM, first compound 0.03 µM
[11] = second compound 0.316 µM, first compound 0.0949 µM
[12] = second compound 0.316 µM, first compound 0.3 µM
[13] = second compound 1 µM, first compound 0.000949 µM
[14] = second compound 1 µM, first compound 0.003 µM
[15] = second compound 1 µM, first compound 0.00949 µM
[16] = second compound 1 µM, first compound 0.03 µM
[17] = second compound 1 µM, first compound 0.0949 µM
[18] = second compound 1 µM, first compound 0.3 µM
[19] = second compound 3.16 µM, first compound 0.000949 µM
[20] = second compound 3.16 µM, first compound 0.003 µM
[21] = second compound 3.16 µM, first compound 0.00949 µM
[22] = second compound 3.16 µM, first compound 0.03 µM
[23] = second compound 3.16 µM, first compound 0.0949 µM
[24] = second compound 3.16 µM, first compound 0.3 µM
[25] = second compound 10 µM, first compound 0.000949 µM
[26] = second compound 10 µM, first compound 0.003 µM
[27] = second compound 10 µM, first compound 0.00949 µM
[28] = second compound 10 µM, first compound 0.03 µM
[29] = second compound 10 µM, first compound 0.0949 µM
[30] = second compound 10 µM, first compound 0.3 µM
[31] = second compound 0.1 µM, first compound 0.0316 µM
[32] = second compound 0.1 µM, first compound 0.1 µM
[33] = second compound 0.1 µM, first compound 0.316 µM
[34] = second compound 0.1 µM, first compound 1 µM
[35] = second compound 0.1 µM, first compound 3.16 µM
[36] = second compound 0.1 µM, first compound 10 µM
[37] = second compound 0.316 µM, first compound 0.0316 µM
[38] = second compound 0.316 µM, first compound 0.1 µM
[39] = second compound 0.316 µM, first compound 0.316 µM
[40] = second compound 0.316 µM, first compound 1 µM
[41] = second compound 0.316 µM, first compound 3.16 µM
[42] = second compound 0.316 µM, first compound 10 µM
[43] = second compound 1 µM, first compound 0.0316 µM
[44] = second compound 1 µM, first compound 0.1 µM
[45] = second compound 1 µM, first compound 0.316 µM
[46] = second compound 1 µM, first compound 1 µM
[47] = second compound 1 µM, first compound 3.16 µM
[48] = second compound 1 µM, first compound 10 µM
[49] = second compound 3.16 µM, first compound 0.0316 µM
[50] = second compound 3.16 µM, first compound 0.1 µM
[51] = second compound 3.16 µM, first compound 0.316 µM
[52] = second compound 3.16 µM, first compound 1 µM
[53] = second compound 3.16 µM, first compound 3.16 µM
[54] = second compound 3.16 µM, first compound 10 µM
[55] = second compound 10 µM, first compound 0.0316 µM
[56] = second compound 10 µM, first compound 0.1 µM
[57] = second compound 10 µM, first compound 0.316 µM
[58] = second compound 10 µM, first compound 1 µM
[59] = second compound 10 µM, first compound 3.16 µM
[60] = second compound 10 µM, first compound 10 µM
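Also: spheroids exposed to compounds for seven days after three days of growth.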

IC50 (second compound 0.1 µM): 9.77 nM
IC50 (second compound 0.316 µM): 9.81 nM
IC50 (second compound 1 µM): 9.14 nM
IC50 (second compound 3.16 µM): 6.72 nM
IC50 (second compound 10 µM): < 0.949 nM
SMILES: CC(C)CC(NC(=O)C(Cc1ccccc1)NC(=O)c1cnccn1)B(O)O (stereo not given) + Cc1cncc(-c2nc(NCCc3c[nH]c4ccccc34)c3ncn(C(C)C)c3n2)c1
viability, T/C [1]: 92.8%
viability, T/C [2]: 109%
viability, T/C [3]: 51.3%
viability, T/C [4]: 3.12%
viability, T/C [5]: 0.7%
viability, T/C [6]: 0.59%
viability, T/C [7]: 89.7%
viability, T/C [8]: 99.3%
viability, T/C [9]: 51.5%
viability, T/C [10]: 3.84%
viability, T/C [11]: 0.68%
viability, T/C [12]: 0.47%
viability, T/C [13]: 82.3%
viability, T/C [14]: 95.5%
viability, T/C [15]: 48.7%
viability, T/C [16]: 3.35%
viability, T/C [17]: 0.56%
viability, T/C [18]: 0.95%
viability, T/C [19]: 62.3%
viability, T/C [20]: 77%
viability, T/C [21]: 41.6%
viability, T/C [22]: 1.9%
viability, T/C [23]: 0.89%
viability, T/C [24]: 1.05%
viability, T/C [25]: 43.5%
viability, T/C [26]: 53.7%
viability, T/C [27]: 19.6%
viability, T/C [28]: 0.58%
viability, T/C [29]: 0.63%
viability, T/C [30]: 0.51%

IC50 (second compound 0.1 µM): 2.91 nM
IC50 (second compound 0.316 µM): 2.89 nM
IC50 (second compound 1 µM): 1.92 nM
IC50 (second compound 3.16 µM): < 0.949 nM
IC50 (second compound 10 µM): < 0.949 nM
SMILES: CCc1c2c(nc3ccc(O)cc13)-c1cc3c(c(=O)n1C2)COC(=O)[C@]3(O)CC + Cc1cncc(-c2nc(NCCc3c[nH]c4ccccc34)c3ncn(C(C)C)c3n2)c1
viability, T/C [1]: 62.5%
viability, T/C [2]: 50.5%
viability, T/C [3]: 22.7%
viability, T/C [4]: 11.1%
viability, T/C [5]: 5.94%
viability, T/C [6]: 3.28%
viability, T/C [7]: 64.3%
viability, T/C [8]: 50.4%
viability, T/C [9]: 23.2%
viability, T/C [10]: 11.7%
viability, T/C [11]: 5.74%
viability, T/C [12]: 3.22%
viability, T/C [13]: 57.6%
viability, T/C [14]: 45.8%
viability, T/C [15]: 22.5%
viability, T/C [16]: 11.6%
viability, T/C [17]: 6.94%
viability, T/C [18]: 4.02%
viability, T/C [19]: 44.6%
viability, T/C [20]: 35.2%
viability, T/C [21]: 19.6%
viability, T/C [22]: 11.1%
viability, T/C [23]: 6.69%
viability, T/C [24]: 3.97%
viability, T/C [25]: 36.7%
viability, T/C [26]: 28.9%
viability, T/C [27]: 21.7%
viability, T/C [28]: 14.2%
viability, T/C [29]: 9.49%
viability, T/C [30]: 6.16%

IC50 (second compound 0.1 µM): < 31.6 nM
IC50 (second compound 0.316 µM): < 31.6 nM
IC50 (second compound 1 µM): < 31.6 nM
IC50 (second compound 3.16 µM): < 31.6 nM
IC50 (second compound 10 µM): < 31.6 nM
SMILES: COc1cc(Nc2ncc3c(n2)-c2ccc(Cl)cc2C(c2c(F)cccc2OC)=NC3)ccc1C(=O)O + Cc1cncc(-c2nc(NCCc3c[nH]c4ccccc34)c3ncn(C(C)C)c3n2)c1
viability, T/C [31]: 50.6%
viability, T/C [32]: 45%
viability, T/C [33]: 50%
viability, T/C [34]: 45.6%
viability, T/C [35]: 46.1%
viability, T/C [36]: 33.5%
viability, T/C [37]: 49.9%
viability, T/C [38]: 43.3%
viability, T/C [39]: 52%
viability, T/C [40]: 45.9%
viability, T/C [41]: 46.5%
viability, T/C [42]: 33.2%
viability, T/C [43]: 46.7%
viability, T/C [44]: 40.3%
viability, T/C [45]: 47.8%
viability, T/C [46]: 44.3%
viability, T/C [47]: 41.9%
viability, T/C [48]: 30.4%
viability, T/C [49]: 44.6%
viability, T/C [50]: 38.7%
viability, T/C [51]: 42.4%
viability, T/C [52]: 39.3%
viability, T/C [53]: 35.5%
viability, T/C [54]: 28%
viability, T/C [55]: 40.4%
viability, T/C [56]: 35%
viability, T/C [57]: 38.5%
viability, T/C [58]: 35.4%
viability, T/C [59]: 32.4%
viability, T/C [60]: 26.3%

IC50 (second compound 0.1 µM): 351 nM
IC50 (second compound 0.316 µM): 242 nM
IC50 (second compound 1 µM): 251 nM
IC50 (second compound 3.16 µM): < 31.6 nM
IC50 (second compound 10 µM): < 31.6 nM
SMILES: Nc1ccccc1NC(=O)c1ccc(CNC(=O)OCc2cccnc2)cc1 + Cc1cncc(-c2nc(NCCc3c[nH]c4ccccc34)c3ncn(C(C)C)c3n2)c1
viability, T/C [31]: 75.2%
viability, T/C [32]: 63.8%
viability, T/C [33]: 48.1%
viability, T/C [34]: 40.9%
viability, T/C [35]: 27.9%
viability, T/C [36]: 13.4%
viability, T/C [37]: 68.2%
viability, T/C [38]: 57%
viability, T/C [39]: 49.7%
viability, T/C [40]: 33.6%
viability, T/C [41]: 25.7%
viability, T/C [42]: 11.5%
viability, T/C [43]: 58.4%
viability, T/C [44]: 60.7%
viability, T/C [45]: 45.7%
viability, T/C [46]: 35.9%
viability, T/C [47]: 22.9%
viability, T/C [48]: 11.9%
viability, T/C [49]: 43.5%
viability, T/C [50]: 47.4%
viability, T/C [51]: 39.3%
viability, T/C [52]: 30.5%
viability, T/C [53]: 17.2%
viability, T/C [54]: 10.9%
viability, T/C [55]: 27.8%
viability, T/C [56]: 27.9%
viability, T/C [57]: 22.6%
viability, T/C [58]: 22.4%
viability, T/C [59]: 15.4%
viability, T/C [60]: 7.52%

IC50 (second compound 0.1 µM): 374 nM
IC50 (second compound 0.316 µM): 460 nM
IC50 (second compound 1 µM): 280 nM
IC50 (second compound 3.16 µM): < 31.6 nM
IC50 (second compound 10 µM): < 31.6 nM
SMILES: O=C(C=Cc1cccc(S(=O)(=O)Nc2ccccc2)c1)NO + Cc1cncc(-c2nc(NCCc3c[nH]c4ccccc34)c3ncn(C(C)C)c3n2)c1
viability, T/C [31]: 76%
viability, T/C [32]: 59.6%
viability, T/C [33]: 46.1%
viability, T/C [34]: 41%
viability, T/C [35]: 36%
viability, T/C [36]: 3.84%
viability, T/C [37]: 69.9%
viability, T/C [38]: 61.4%
viability, T/C [39]: 50.9%
viability, T/C [40]: 39.9%
viability, T/C [41]: 33.4%
viability, T/C [42]: 3.8%
viability, T/C [43]: 55.3%
viability, T/C [44]: 59.7%
viability, T/C [45]: 49.6%
viability, T/C [46]: 35.4%
viability, T/C [47]: 30.5%
viability, T/C [48]: 4.08%
viability, T/C [49]: 46.3%
viability, T/C [50]: 46.6%
viability, T/C [51]: 46%
viability, T/C [52]: 31.9%
viability, T/C [53]: 31.7%
viability, T/C [54]: 4.11%
viability, T/C [55]: 32.9%
viability, T/C [56]: 34.2%
viability, T/C [57]: 30.1%
viability, T/C [58]: 29%
viability, T/C [59]: 26.6%
viability, T/C [60]: 6.63%

IC50 (second compound 0.1 µM): > 10000 nM
IC50 (second compound 0.316 µM): > 10000 nM
IC50 (second compound 1 µM): > 10000 nM
IC50 (second compound 3.16 µM): > 10000 nM
IC50 (second compound 10 µM): < 31.6 nM
SMILES: O=C(c1cc(Cc2n[nH]c(=O)c3ccccc23)ccc1F)N1CCN(C(=O)C2CC2)CC1 + Cc1cncc(-c2nc(NCCc3c[nH]c4ccccc34)c3ncn(C(C)C)c3n2)c1
viability, T/C [31]: 88.1%
viability, T/C [32]: 94.8%
viability, T/C [33]: 85.6%
viability, T/C [34]: 89.7%
viability, T/C [35]: 89.8%
viability, T/C [36]: 70.3%
viability, T/C [37]: 91.6%
viability, T/C [38]: 89.3%
viability, T/C [39]: 88.8%
viability, T/C [40]: 84.7%
viability, T/C [41]: 87.9%
viability, T/C [42]: 65.6%
viability, T/C [43]: 84.2%
viability, T/C [44]: 80.6%
viability, T/C [45]: 80.6%
viability, T/C [46]: 88.2%
viability, T/C [47]: 85.5%
viability, T/C [48]: 61.5%
viability, T/C [49]: 61.6%
viability, T/C [50]: 67.3%
viability, T/C [51]: 69.2%
viability, T/C [52]: 66%
viability, T/C [53]: 68.6%
viability, T/C [54]: 54.2%
viability, T/C [55]: 44%
viability, T/C [56]: 47%
viability, T/C [57]: 44.9%
viability, T/C [58]: 44.5%
viability, T/C [59]: 43.4%
viability, T/C [60]: 37.2%
